Experimental data: PubChem BioAssay (NCI)
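Here, GI50 denotes the concentration required for 50% inhibition of growth. The concentration for full growth arrest is given as TGI.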

Tests used:
Assay in all cases: growth of human tumour cells (NCI), 384-well format
A498 renal = system: A498 renal
MDA-MB-231 breast = system: MDA-MB-231 breast
MDA-MB-435 melanoma = system: MDA-MB-435 melanoma
HL-60(TB) leukemia = system: HL-60(TB) leukemia
SF-268 CNS = system: SF-268 CNS
ACHN renal = system: ACHN renal
LOX IMVI melanoma = system: LOX IMVI melanoma
K-562 leukemia = system: K-562 leukemia
SK-MEL-28 melanoma = system: SK-MEL-28 melanoma
SR leukemia = system: SR leukemia
HS 578T breast = system: HS 578T breast
786-0 renal = system: 786-0 renal
MALME-3M melanoma = system: MALME-3M melanoma
BT-549 breast = system: BT-549 breast
IGROV1 ovarian = system: IGROV1 ovarian
A549 NSCLC = system: A549 NSCLC
TK-10 renal = system: TK-10 renal
OVCAR-4 ovarian = system: OVCAR-4 ovarian
OVCAR-5 ovarian = system: OVCAR-5 ovarian
KM12 colon = system: KM12 colon
MCF7 breast = system: MCF7 breast
T-47D breast = system: T-47D breast
HT29 colon = system: HT29 colon
HCT-116 colon = system: HCT-116 colon
HOP-62 NSCLC = system: HOP-62 NSCLC
SNB-19 CNS = system: SNB-19 CNS
NCI-H23 lung = system: NCI-H23 lung
NCI/ADR-RES ovarian = system: NCI/ADR-RES ovarian
OVCAR-3 ovarian = system: OVCAR-3 ovarian
NCI-H322M lung = system: NCI-H322M lung
UACC-62 melanoma = system: UACC-62 melanoma
PC-3 prostate = system: PC-3 prostate
EKVX NSCLC = system: EKVX NSCLC
HCC-2998 colon = system: HCC-2998 colon
DU-145 prostate = system: DU-145 prostate
SF-295 CNS = system: SF-295 CNS
SW-620 colon = system: SW-620 colon
SK-MEL-2 melanoma = system: SK-MEL-2 melanoma
NCI-H226 lung = system: NCI-H226 lung
COLO 205 colon = system: COLO 205 colon
SK-MEL-5 melanoma = system: SK-MEL-5 melanoma
NCI-H522 lung = system: NCI-H522 lung
NCI-H460 NSCLC = system: NCI-H460 NSCLC
HCT-15 colon = system: HCT-15 colon
OVCAR-8 ovarian = system: OVCAR-8 ovarian
CAKI-1 renal = system: CAKI-1 renal
SK-OV-3 ovarian = system: SK-OV-3 ovarian

`CC1(N)CCN(c2cnc(-c3cccc(Cl)c3Cl)c(N)n2)CC1` was tested. Which GI50 (A498 renal) did it give?
The GI50 was 4.27 µM.

And the TGI (A498 renal)?
Its TGI is 19.7 µM.

What about the GI50 (MDA-MB-231 breast) of the same molecule?
The GI50 was 20.2 µM.

What about the TGI (MDA-MB-231 breast) of the same molecule?
The TGI was 49.6 µM.

And the GI50 (MDA-MB-435 melanoma)?
The GI50 was 22.8 µM.

What about the TGI (MDA-MB-435 melanoma) of the same molecule?
Its TGI is 48 µM.

And the GI50 (HL-60(TB) leukemia)?
The GI50 was 23.4 µM.

And the TGI (HL-60(TB) leukemia)?
Its TGI is 38.1 µM.

What about the GI50 (SF-268 CNS) of the same molecule?
The GI50 was 18.6 µM.

What about the TGI (SF-268 CNS) of the same molecule?
The TGI was 53.4 µM.

What about the GI50 (ACHN renal) of the same molecule?
Its GI50 is 10.5 µM.

What about the TGI (ACHN renal) of the same molecule?
The TGI was 60.6 µM.

And the GI50 (LOX IMVI melanoma)?
Its GI50 is 17.1 µM.

And the TGI (LOX IMVI melanoma)?
The TGI was 31 µM.

What about the GI50 (K-562 leukemia) of the same molecule?
Its GI50 is 0.783 µM.

What about the TGI (K-562 leukemia) of the same molecule?
The TGI was 14.4 µM.

And the GI50 (SK-MEL-28 melanoma)?
Its GI50 is 16.7 µM.

What about the TGI (SK-MEL-28 melanoma) of the same molecule?
Its TGI is 30.5 µM.

What about the GI50 (SR leukemia) of the same molecule?
The GI50 was 7.14 µM.

What about the TGI (SR leukemia) of the same molecule?
Its TGI is 20.3 µM.

What about the GI50 (HS 578T breast) of the same molecule?
The GI50 was 13.4 µM.

And the TGI (HS 578T breast)?
The TGI was 27.2 µM.

What about the GI50 ([…]-0 renal) of the same molecule?
The GI50 was 11.1 µM.

And the TGI (786-0 renal)?
The TGI was 24 µM.

And the GI50 (MALME-3M melanoma)?
Its GI50 is 14.8 µM.

What about the TGI (MALME-3M melanoma) of the same molecule?
The TGI was 28 µM.

And the GI50 (BT-549 breast)?
The GI50 was 10.6 µM.

And the TGI (BT-549 breast)?
Its TGI is 24 µM.

What about the GI50 (IGROV1 ovarian) of the same molecule?
Its GI50 is 8.4 µM.

What about the TGI (IGROV1 ovarian) of the same molecule?
Its TGI is 27 µM.

And the GI50 (A549 NSCLC)?
Its GI50 is 30.1 µM.

And the TGI (A549 NSCLC)?
The TGI was greater than 100 µM.

And the GI50 (TK-10 renal)?
The GI50 was 8.25 µM.

What about the TGI (TK-10 renal) of the same molecule?
Its TGI is 25 µM.

And the GI50 (OVCAR-4 ovarian)?
The GI50 was 14 µM.

What about the TGI (OVCAR-4 ovarian) of the same molecule?
Its TGI is greater than 77.1 µM.

And the GI50 (OVCAR-5 ovarian)?
The GI50 was 15.7 µM.

And the TGI (OVCAR-5 ovarian)?
Its TGI is 47.6 µM.

What about the GI50 (KM12 colon) of the same molecule?
The GI50 was 6.2 µM.

And the TGI (KM12 colon)?
Its TGI is 20 µM.

And the GI50 (MCF7 breast)?
Its GI50 is 15.5 µM.

What about the TGI (MCF7 breast) of the same molecule?
Its TGI is 29.7 µM.

And the GI50 (T-47D breast)?
Its GI50 is 13.3 µM.

What about the TGI (T-47D breast) of the same molecule?
Its TGI is 27.9 µM.

What about the GI50 (HT29 colon) of the same molecule?
The GI50 was 18 µM.

And the TGI (HT29 colon)?
Its TGI is 34.7 µM.

What about the GI50 (HCT-116 colon) of the same molecule?
Its GI50 is 17.2 µM.

What about the TGI (HCT-116 colon) of the same molecule?
Its TGI is 32.1 µM.

And the GI50 (HOP-62 NSCLC)?
The GI50 was 24.3 µM.

What about the TGI (HOP-62 NSCLC) of the same molecule?
The TGI was greater than 74 µM.

And the GI50 (SNB-19 CNS)?
Its GI50 is 11.9 µM.

And the TGI (SNB-19 CNS)?
The TGI was greater than 74.3 µM.

What about the GI50 (NCI-H23 lung) of the same molecule?
The GI50 was 3.66 µM.

What about the TGI (NCI-H23 lung) of the same molecule?
Its TGI is 23.4 µM.

And the GI50 (NCI/ADR-RES ovarian)?
Its GI50 is 17.9 µM.

What about the TGI (NCI/ADR-RES ovarian) of the same molecule?
Its TGI is greater than 71.1 µM.

What about the GI50 (OVCAR-3 ovarian) of the same molecule?
Its GI50 is 13.6 µM.

And the TGI (OVCAR-3 ovarian)?
Its TGI is 45.3 µM.

And the GI50 (NCI-H322M lung)?
Its GI50 is 3.73 µM.

And the TGI (NCI-H322M lung)?
The TGI was 47.2 µM.

And the GI50 (UACC-62 melanoma)?
Its GI50 is 18.7 µM.

What about the TGI (UACC-62 melanoma) of the same molecule?
Its TGI is 32.9 µM.

What about the GI50 (PC-3 prostate) of the same molecule?
The GI50 was 21.4 µM.

And the TGI (PC-3 prostate)?
Its TGI is greater than 60.4 µM.

And the GI50 (EKVX NSCLC)?
Its GI50 is 8.83 µM.

And the TGI (EKVX NSCLC)?
Its TGI is 30.8 µM.

What about the GI50 (HCC-2998 colon) of the same molecule?
The GI50 was 16 µM.

And the TGI (HCC-2998 colon)?
Its TGI is 29.8 µM.

And the GI50 (DU-145 prostate)?
The GI50 was 47 µM.

What about the TGI (DU-145 prostate) of the same molecule?
The TGI was greater than 100 µM.

And the GI50 (SF-295 CNS)?
The GI50 was 21.5 µM.

And the TGI (SF-295 CNS)?
The TGI was greater than 55.2 µM.

What about the GI50 (SW-620 colon) of the same molecule?
Its GI50 is 7.58 µM.

What about the TGI (SW-620 colon) of the same molecule?
Its TGI is greater than 50.4 µM.

And the GI50 (SK-MEL-2 melanoma)?
Its GI50 is 13.7 µM.

And the TGI (SK-MEL-2 melanoma)?
The TGI was 26.6 µM.

And the GI50 (NCI-H226 lung)?
The GI50 was 8.68 µM.

And the TGI (NCI-H226 lung)?
The TGI was 46.6 µM.

And the GI50 (COLO 205 colon)?
The GI50 was 21.3 µM.

And the TGI (COLO 205 colon)?
The TGI was 41.5 µM.

What about the GI50 (SK-MEL-5 melanoma) of the same molecule?
Its GI50 is 15.3 µM.

What about the TGI (SK-MEL-5 melanoma) of the same molecule?
The TGI was 28.7 µM.

What about the GI50 (NCI-H522 lung) of the same molecule?
Its GI50 is 2.64 µM.

And the TGI (NCI-H522 lung)?
The TGI was 19.2 µM.

What about the GI50 (NCI-H460 NSCLC) of the same molecule?
Its GI50 is 18.1 µM.

And the TGI (NCI-H460 NSCLC)?
Its TGI is 33.3 µM.

And the GI50 (HCT-15 colon)?
Its GI50 is 16.6 µM.

And the TGI (HCT-15 colon)?
Its TGI is 33.5 µM.

What about the GI50 (OVCAR-8 ovarian) of the same molecule?
Its GI50 is 27.9 µM.

What about the TGI (OVCAR-8 ovarian) of the same molecule?
The TGI was greater than 100 µM.

What about the GI50 (CAKI-1 renal) of the same molecule?
The GI50 was 2.74 µM.

What about the TGI (CAKI-1 renal) of the same molecule?
The TGI was 16.9 µM.

And the GI50 (SK-OV-3 ovarian)?
The GI50 was 10.2 µM.

And the TGI (SK-OV-3 ovarian)?
The TGI was 24.9 µM.
